Measurements taken from patent EP3810127B1, “USE OF MILBEMYCIN OXIME AGAINST SEA LICE ON FISH” (Pharmaq AS, priority 2018, dated 2019).
Where two headings read alike, the source gives them in different places.

What was measured:
sea lice [1] = conditions: injectable composition, cited from earlier work
[2] = tested on: adult stages of L. salmonis; assay: in-vivo bath exposure of Atlantic salmon infested with adult lice; conditions: one hour bath, female lice counted on Day 3
Description: In a separate in-vivo study, Atlantic salmon infested with adult stages of L. salmonis were housed in a 500L tank with sea water at 12°C before drug exposure. Fish were randomly extracted from the holding tank and distributed to the treatment containers (n=14/container). […] Fish were then transferred to observation tanks. Fish were dosed with 500ppb, 250ppb, 125ppb, and 62.5ppb milbemycin oxime. […] On Day 3, fish were terminated and the number of female salmon lice were counted on each of the fish. Milbemycin oxime was 100% efficacious against the sea lice at all dose levels.

[3] = tested on: adult reduced sensitivity lice; assay: in-vitro 1 hour exposure of adult lice in sea water; set-up: species or system salmon lice; conditions: exposed 1 hour, 48 hours post-exposure
[4] = tested on: copepodids from salmon lice with reduced sensitivity; assay: in-vitro 1 hour exposure of copepodids in sea water; conditions: exposed 1 hour, 96 hours post-exposure
[5] = tested on: preadult salmon lice with reduced sensitivity; assay: in-vitro 1 hour exposure of preadult lice in sea water
salmon lice = conditions: one hour bath on Day 1, lice counted on Day 3
sea lice [6] = conditions: cited from earlier work

## O=C(NC(=O)c1c(F)cccc1F)Nc1cc(Cl)c(OC(F)(F)C(F)F)c(Cl)c1 [hexaflumuron]
Sea lice [1]; 50mg/kg
  efficacy against sea lice: provided efficacy

## milbemycin oxime
[2]; 62.5ppb
  efficacious against the sea lice: 100%
[2]; 125ppb
  efficacious against the sea lice: 100%
[2]; 250ppb
  efficacious against the sea lice: 100%
[2]; 500ppb
  efficacious against the sea lice: 100%
[3]; 2ppb
  moribund rate: 82%
[3]; 10ppb
  state of adult lice: all dead or moribund
[3]; 25ppb
  state of adult lice: all dead or moribund
[4]; 12.5ppb
  state of copepodids: moribund
[4]; 25ppb
  state of copepodids: moribund
[4]; 50ppb
  state of copepodids: moribund
[5]; 5ppb, exposed 1 hour, 48 hours post-exposure
  state of preadult lice: all were moribund
[5]; milbemycin oxime at 5ppb compared with VS55759 at 50ppb (60% morbidity)
  more effective at killing sea lice than VS55759: at least 10 x
Sea lice [1]; dose of 0.5mg/kg
  efficacy against sea lice: not efficacious
Salmon lice; 7.8ppb
  efficacious against adult sea lice: 100%
Salmon lice; 15.6ppb, remaining living lice loosely attached to the caudal fin
  Efficacy: 66.6%
Salmon lice; 31.3ppb
  efficacious against adult sea lice: 100%
Salmon lice; 62.5ppb
  efficacious against adult sea lice: 100%

## 23(S)-t-butyloxyimino-25(S)-t-butyl milbemycin X [VS55759]
Sea lice [6]; 0.1ppm (100ppb) in a bath solution
  efficacious against sea lice: efficacious
Sea lice [6]; 100ppb dose, immersion
  effective against sea lice: 100%

## O=C(NC(=O)c1c(F)cccc1F)Nc1cc(Cl)c(OC(F)(F)C(F)C(F)(F)F)cc1Cl (stereo not drawn) [lufenuron]
Sea lice [1]; 50mg/kg
  efficacy against sea lice: provided efficacy
